Data as given in patent US20050054629A1, “Compounds and methods of treating cell proliferative diseases” (priority 2002, published 2005).
Where two headings read alike, the source gives them in different places.

Key:
H460 lung carcinoma = assay: Cytotoxicity assay (MTT), 6 days; format: cell-based; conditions: Homo sapiens, NCI-H460, 144 h, 6 days of treatment, read-out: Toxicity 6d (IC 50, μM) H460
From the text: (§1) Four human tumoral cell lines, namely HCT116 colon adenocarcinoma, H460 lung carcinoma, MCF-7 and MDA-MB-231 breast carcinoma cell lines, and three immortalized but non tumorigenic cell lines, namely NIH3T3 mouse fibroblasts and human breast-derived MCF10-A and MRC-5 were purchased at ATCC and cultured according to their recommendations. In order to determine the cytotoxicity associated with one compound, a microculture tetrazolium assay (MTT), as described by Carmichael et al (Cancer Res, 1996) with modifications, was used. Briefly, 5.10^3 or 2.10^4 cells were seeded per well in 24-well plates 24 hours before drug addition. Cells were treated with 0, 1, 10, 17.5, 25 and 50 μM of compound solubilized in DMSO, adjusting the total volume of DMSO (Dimethylsulfoxide) to 1%. Forty-eight hours or 6 days after treatment, the medium was replaced by PBS containing 0.5 mg/ml MTT (Sigma) and cells were incubated for 3 more hours at 37° C. before solubilization of formazan crystals in 100% DMSO. Absorbance was measured using a spectrophotometer at a wavelength of 550 nm. Cell surviving fraction and 50% inhibitory concentration were calculated. All assays were performed in triplicate.

MCF-7 breast carcinoma = assay: Cytotoxicity assay (MTT), 6 days; format: cell-based; conditions: Homo sapiens, MCF7, 144 h, 6 days of treatment, read-out: Toxicity 6d (IC 50, μM) MCF7
From the text: as §1

MCF10-A = assay: Cytotoxicity assay (MTT), 6 days; format: cell-based; conditions: Homo sapiens, MCF-10A, 144 h, 6 days of treatment, read-out: Toxicity 6d (IC 50, μM) MCF10-A
From the text: as §1

[1] = test system: MDA-MB-231 breast carcinoma; assay: Cytotoxicity assay (MTT), 6 days; format: cell-based; conditions: Homo sapiens, MDA-MB-231, 144 h, 6 days of treatment, read-out: Toxicity 6d (IC 50, μM) MDA231
From the text: as §1

MRC-5 = assay: Cytotoxicity assay (MTT), 6 days; format: cell-based; conditions: Homo sapiens, MRC5, 144 h, 6 days of treatment, read-out: Toxicity 6d (IC 50, μM) MRC-5
From the text: as §1

NIH3T3 mouse fibroblasts = assay: Cytotoxicity assay (MTT), 6 days; format: cell-based; conditions: NIH3T3, 144 h, 6 days of treatment, read-out: Toxicity 6d (IC 50, μM) NIH3T3
From the text: as §1

[2] = test system: HCT116 colon adenocarcinoma; assay: Cytotoxicity assay (MTT), 6 days; format: cell-based, human; conditions: 6 days of treatment, read-out: Toxicity 6d (IC 50, μM) HCT116
From the text: as §1

MDA-MB-231 cells [3] = assay: Matrigel invasion assay (Boyden chamber); format: cell-based, human; conditions: MDA-MB-231, Boyden chamber, matrigel
Description: Chemoinvasion assay was performed in Boyden chamber as described by Albini et al (Cancer Res, 1987) with some modifications. Polycarbonate membranes with 8 μm pores were coated with matrigel (125 μg/cm^2) at room temperature for 48 h. Two hours before experiments, the matrix was […] with serum-free medium containing 0.1% BSA.
(§2) One day after seeding, 10^6 MDA-MB-231 cells were treated overnight with different concentrations of compounds (1, 10, 17.5, 25 and 50 μM). Cells were collected with Versene (Invitrogen), counted with trypan blue exclusion, rinsed twice in serum-free medium containing 0.1% BSA and resuspended in serum-free medium containing 0.1% BSA plus the appropriate concentration of compound. 10^5 treated cells were placed in the upper chamber. Medium containing 10% of FBS plus the appropriate concentration of compound was placed in the lower chamber as a chemoattractant. The Boyden chamber was incubated 6 hours at 37° C. before the cells were fixed and stained with Diff-Quick (Dade-Berhing). Cells on the upper part of the filters were removed using a cotton swab. Cells on the underside of the filters were visualised and counted under light microscope.

NIH3T3 cells = assay: Colony formation assay with constitutively activated Ras (RasV12) and Rac (RacV12); format: cell-based, mouse; design: key to Colony formation: −: no effect of the compound was observed; +: an effect of the compound was observed
Description: (§3) The impact of the compounds on Ras and Rac signaling pathways was analysed with two reporter systems described by Imler (Nature 1988) and Lin (Science, 1995) respectively on one hand, and by a colony formation assay in the presence of constitutively activated Ras (RasV12) and Rac (RacV12) on the other hand. For this latter experiment, fifty percent confluent NIH3T3 cells in a 10 cm diameter petri dish were transfected with 0.5 μg pSV2-RasV12 or 0.5 μg pEXV RacV12 plasmids plus 100 ng of pSV2-neomycin plasmid using Lipofectamine-Plus reagent (Invitrogen) according to the manufacturer's instructions. Forty-eight hours later, cells were trypsinised, splitted to ⅓, and incubated in the presence of complete medium supplemented with 400 μg/ml geneticin (Invitrogen) and different doses of compound (1, 10, 17.5, 25 and 50 μM) until emerging resistant clones appear (2-3 weeks). The medium was renewed every 3 days. Colonies with a minimum of 50 cells were counted after staining with Fuschin 2%.

cell architecture = assay: Cell architecture modification, phase contrast; format: cell-based; design: key: −: no effect of the compound was observed; +: an effect of the compound was observed
MDA-MB-231 cells [4] = assay: Migration assay (Boyden chamber, non-coated filters); format: cell-based, human; conditions: MDA-MB-231, Boyden chamber
Description: as §2
The migration assay was performed the same way, using non-coated filters.

Ras = assay: Ras-dependant signaling pathway analysis (reporter system); format: cell-based; design: key: −: no effect of the compound was observed; +: an effect of the compound was observed
Description: as §3

NIH3T3 = assay: Cytoskeleton analysis, actin staining (FITC-phalloidin); format: cell-based, mouse
Description: Since major rearrangements of cytoskeleton are observed in tumor cells and since the small GTPases are known to regulate these events, analysis of actin cytoskeleton was performed. Subconfluent cells seeded onto coverslips were treated with different concentration of compound (1, 10, 17.5, 25 and 50 μM) or vehicle for 24 h, before being fixed in 4% formaldehyde for 15 min., permeabilized in 0.2% Triton X100 for 5 minutes and incubated in PowerBlock (Biogenex) for 10 min. Actin filaments were stained with 0.5 μg/ml fluorescein isothiocyanate (FITC)-labelled phalloidin for 1 hour. Analysis was performed using an inverted fluorescent microscope.

HCT116 cells = assay: Anchorage-independent growth assay (soft agar / Matrigel); format: cell-based, human; conditions: Homo sapiens, HCT-116, 168 h; HCT116, 3-dimensional growth, 1 week
Description: In order to evaluate the effect of the compounds on the capacity of tumor cells to grow without anchorage, HCT116 cells were seeded either in agar or in Matrigel (BD, France). For 3D growth experiment in soft agar in 24-well plates, 5.10^3 HCT116 cells were resuspended in 250 μl of complete medium containing 0.3% soft-agar (Difco) and different concentrations of compound (0.1, 1, 10, 17.5, 25 and 50 μM). Cells were then poured on a solidified layer of medium containing 0.5% of soft-agar plus the compound at the same concentration than in the upper layer. Cells were incubated at 37° C. for 1 week before they were analysed using a phase contrast microscope (Nikon). For 3D growth experiment in Matrigel, 10^4 HCT116 cells were resuspended in 300 μl of complete medium containing 5 mg/ml Matrigel (BD, France) and different concentrations of compound (0.1, 1, 10, 17.5, 25 and 50 μM), and poured in 24-well plates. After solidification at 37° C. for 15 min., complete medium containing the compound was added to each well. Cells were incubated for 1 week before they were collected using Matrisperse (BD, France) according to the manufacturer's instructions. After recovery, alive cells were counted with trypan blue exclusion.

HCT116 = assay: Cell viability assay (MTT), Example 32; format: cell-based, human; conditions: for IC50: Homo sapiens, HCT-116, 144 h, day 6, 10% FBS
Description: FIG. 7: Antiproliferative effect of compounds on HCT116 (top) and MDA-MB-231 (bottom) cell lines measured by MTT viability assay. 2.5 10^3 (HCT116) or 7.5 10^3 (MDA-MB-231) cells were seeded in 48-well plates in growth medium containing 10% FBS, with or without various concentrations of test compounds. Cell cultures were fed every 3 days with the appropriate media. Cell viability was determined on day 6. Data were analyzed and IC50s were calculated from the dose-response curves using GraphPad Prism.
In order to determine one compound effect on cell viability, microculture tetrazolium assay (MTT) was performed as described by Carmichael et al., (1996) with modifications. Four human tumoral cell lines, namely HCT116 colon adenocarcinoma, H460 lung carcinoma, MCF-7 and MDA-MB-231 breast carcinoma cell lines, and 3 immortalized but non tumorigenic cell lines, namely NIH3T3 mouse fibroblasts and human breast-derived MCF10-A and human lung-derived MRC-5 were purchased at ATCC and cultured according to their recommendations. Briefly, 2.5 10^3 to 2 10^4 cells per well were seeded in 48-well plates 24 hours before drug addition. Cells were treated with 0 to 200 μM (11 concentrations) of compound solubilized in DMSO, adjusting the final concentration of DMSO to 1% in the well. Six days after treatment, the medium was replaced by PBS containing 0.5 mg/ml MTT (Sigma) and cells were incubated for 1-3 hours at 37° C. before solubilization of formazan crystals in 100% DMSO. Absorbance was measured using a spectrophotometer at a wavelength of 550 nm. Data was analyzed using the GraphPad Prism software (GraphPad Software, Inc., San Diego, USA), and IC50 (dose leading to 50% cell death) was calculated from the dose-response curves.

| IC50 (HCT116) [µM] | Structure (SMILES) | IC50 (H460 lung carcinoma) [µM] | IC50 (MCF-7 breast carcinoma) [µM] | IC50 [1] [µM] | IC50 (NIH3T3 mouse fibroblasts) [µM] | IC50 ([2]; Homo sapiens, HCT-116, 144 h) [µM] | also measured |
| --- | --- | --- | --- | --- | --- | --- | --- |
|  | C/C=C/c1oc(CO)cc(=O)c1OCCCCCOc1ccccc1CCC [EH9301, (E)-6-(Hydroxymethyl)-2-(propen-1-yl)-3-[5-(2-propylphenyloxy)pentyloxy]-4H-pyran-4-one] | 25 | 20 | 25 | 50 | 20 | IC50 (MCF10-A): > 50 µM; IC50 (MRC-5): 35 µM; Invasion (MDA-MB-231 cells [3]): No effect; Colony formation (NIH3T3 cells): −; Cell architecture modification phase contrast (cell architecture): −; Migration (MDA-MB-231 cells [4]): no effect |
|  | O=c1cc(CO)occ1OCCCCCOc1ccc(Cl)cc1 [EH15500, 5-[5-(4-Chlorophenyloxy)pentyloxy]-2-(hydroxymethyl)-4H-pyran-4-one] | 35 | > 50 | 15 |  | 50 | Small GTPases activities Ras (Ras): −; Colony formation (NIH3T3 cells): −; Cell architecture modification phase contrast (cell architecture): +; general morphology of NIH3T3 cells, as detected by β-actin staining (NIH3T3): affected; Cell architecture modification actin staining (R: ruffles; FC: focal complexes) NIH3T3 (NIH3T3; 24 h treatment): cell destructuration; melting point: 95 to 97 °C |
|  | C/C=C/c1oc(CO)cc(=O)c1OCCCCCOc1cccc(Cl)c1 [EH16201, (E)-3-[5-(3-Chlorophenyloxy)pentyloxy]-6-(hydroxymethyl)-2-(propen-1-yl)-4H-pyran-4-one] | 20 | 25 | > 50 | 25 | 50 | IC50 (HCT116 cells): 12.5 µM |
|  | C/C=C/c1oc(CO)cc(=O)c1OCCCCCOc1ccc(Cl)cc1 [EH26101, (E)-3-[5-(4-Chlorophenyloxy)pentyloxy]-6-(hydroxymethyl)-2(propen-1-yl)-4H-pyran-4-one] | 35 | > 50 | 40 to 45 | 1 to 5 | > 50 | IC50 (HCT116 cells): 50 µM |
|  | O=C(NCc1ccccc1)c1cc(=O)c(OCCCCCOc2ccc(Cl)cc2)co1 [EH28900, N-Benzyl-5-[5-(4-Chlorophenyloxy)pentyloxy]-4-oxo-4H-pyran-2-carboxamide] | 10 | 20 | 5 | 0.5 | ≤ 15 | IC50 (MCF10-A): 50 µM; IC50 [2]: 25 µM; Small GTPases activities Ras (Ras): −; Cell architecture modification phase contrast (cell architecture): − |
|  | C/C=C/c1oc(CO)cc(=O)c1OCCCCCOc1ccc(Cl)c(Cl)c1 [EH30101] | 35 | 45 | 30 to 35 | 0.1 to 0.5 | 50 | IC50 (HCT116 cells): 7.5 µM |
| > 100 | O=c1cc(CO)occ1OCCCCCn1cnc2c(Cl)ncnc21 [EHT 0248, 5-[5-(6-Chloro-purin-9-yl)-pentyloxy]-2-hydroxymethyl-4H-pyran-4-one] |  |  |  |  |  |  |
| 4 | C/C=C/c1oc(CO)cc(=O)c1OCCCCCOc1ccc(Cl)cc1CCC [EHT 1405, (E)-3-[5-(4-chloro-2-propyl-phenoxy)-pentyloxy]-6-hydroxymethyl-2-propenyl-4H-pyran-4-one] |  |  |  |  |  |  |
|  | O=C(NC1CCCCC1)OCc1cc(=O)c(OCCCCCn2ccc3ccccc32)co1 [EHT 6231, Cyclohexyl-carbamic acid 5-(5-indol-1-yl-pentyloxy)-4-oxo-4H-pyran-2-ylmethyl ester] |  |  |  |  |  | IC50 fold higher as compared to compound EHT 7395 (HCT116; MTT, HCT116): 2 fold |
| 1.5 to 4 | O=c1cc(COC2CCCCO2)occ1OCCCCCn1ccc2ccc(Cl)cc21 (centres unmarked) [EHT 8617, 5-[5-(6-Chloro-indol-1-yl)-pentyloxy]-2-(tetrahydro-pyran-2-yloxymethyl)-4H-pyran-4-one] |  |  |  |  |  |  |
| > 100 | O=c1cc(CO)occ1OCCCCCN1CCc2ccccc21 [EHT 8650, 5-[5-(2,3-Dihydro-indol-1-yl)-pentyloxy]-2-hydroxymethyl-4H-pyran-4-one] |  |  |  |  |  |  |
